Experimental findings from ChEMBL document CHEMBL1151654, “Antineoplastic and piscicidal 1-alkyldaphnane orthoesters from Pimelea species” (J Nat Prod, 1985) are described below.

In one series the test system is Gambusia affinis. The experiment in a line: Toxicity against Gambusia affinis at 30 to 60 ug/L within 24 hrs. Particulars: in vivo. The class given is organism-based.
Series [1] deals with P388. Kind of series: In vivo antitumor activity against mouse P388 cells at 100 ug/kg relative to control. The class given is functional.
The test system of series [2] is P388. Kind of series: In vivo antitumor activity against mouse P388 cells at 300 ug/kg relative to control. The class given is functional.

Turning to `C=C(C)[C@@]12C[C@@H](COC(=O)c3ccccc3)[C@@]34OC5(O[C@@H]1[C@@H]3[C@@H]1O[C@]1(CO)[C@@H](O)[C@@]1(O)[C@H]4[C@H]([C@H](C)[C@@H]1OC(=O)c1ccccc1)[C@H](C)CCCCCC[C@H]5O)O2` [GNIDIMACRIN], the Activity entry in the series with Gambusia affinis is “Toxic”.
With `C=C(C)[C@@]12C[C@@H](C)[C@@]34OC5(O[C@@H]1[C@@H]3[C@@H]1O[C@]1(CO)[C@@H](O)[C@@]1(O)[C@H]4[C@H]([C@H](C)[C@@H]1OC(=O)c1ccccc1)[C@H](C)CCCCCC[C@H]5O)O2` [KRAUSSIANIN], the Activity result with Gambusia affinis was “Toxic”.
Regarding `C=C1C(=O)O[C@H]2C[C@@H](C)[C@@H]3C=CC(=O)[C@@]3(C)[C@H](OC(C)=O)[C@H]12` [LINIFOLIN A], the T/C (as a rule, the result in the treated group divided by that in the control group, in per cent) with P388 [1] is 107%. In addition, the Activity entry with Gambusia affinis was “Toxic”.
Take `C=C(C)[C@@]12C[C@@H](C)[C@@]34OC5(O[C@@H]1[C@@H]3[C@@H]1O[C@]1(CO)[C@@H](O)[C@@]1(O)[C@H]4[C@H]([C@H](C)[C@@H]1OC(=O)c1ccccc1)[C@@H](C)CCCCCC[C@H]5O)O2` [LINIMACRIN C]: the Activity result with Gambusia affinis is “Toxic”.
In turn, `C=C(C)[C@]12OC34CCCCCCC[C@@H](C)[C@H]5[C@H](C)[C@H](OC(=O)c6ccccc6)[C@@]6(O)[C@H](O)[C@@]7(CO)O[C@H]7[C@@H]([C@H]1O3)[C@](O4)([C@H](C)[C@H]2OC(C)=O)[C@H]56` [LINIMACRIN D] displayed a T/C in the series with P388 [2] of 132%. The Activity entry in the series with Gambusia affinis is on record as “Toxic”.
On to `C=C(C)[C@]12C[C@@H](C)[C@@]34OC5(CCCCCCC[C@H](C)[C@H]6[C@H](C)[C@H](OC(=O)c7ccccc7)[C@@](O)([C@H](O)[C@@]7(CO)O[C@H]7[C@H]3[C@H]1O5)[C@@H]64)O2` [PIMELEA FACTOR P2], for which the Activity result with Gambusia affinis is “Toxic”.
In the case of `C=C(C)[C@@]12C[C@@H](C)[C@@]34OC5(CCCCCCC[C@@H](C)[C@H]6[C@H](C)[C@H](OC(=O)c7ccccc7)[C@@](O)([C@H](O)[C@@]7(CO)O[C@H]7[C@H]3[C@H]1O5)[C@@H]64)O2` [PIMELEA FACTOR P3], in the series on P388 [2], the T/C turned out to be 164%. Further, in the series with Gambusia affinis, the Activity result is given as “Toxic”.
For `C=C(C)[C@@]12C[C@@H](COC(=O)c3ccccc3)[C@@]34OC5(O[C@@H]1[C@@H]3[C@@H]1O[C@]1(CO)[C@@H](O)[C@@]1(O)[C@H]4[C@H]([C@H](C)[C@@H]1OC(=O)c1ccc(OC(C)=O)cc1)[C@H](C)CCCCCC[C@H]5O)O2` [SIMPLEXIMACRIN], the Activity entry in the series with Gambusia affinis is “Toxic”.
